{"source": "patent US6150385A", "about": "“1,3,4-thiadiazoles useful for the treatment of CMV infections” (Pharmacia & Upjohn Company, priority 1999, dated 2000)", "data": [{"biological_target": "T1, HCMV polymerase (Human cytomegalovirus, UniProt P08546)", "T1 construct": "made in house; host or cells: SF-9 insect cells infected with recombinant baculovirus", "T1 sequence (P08546 whole entry)": "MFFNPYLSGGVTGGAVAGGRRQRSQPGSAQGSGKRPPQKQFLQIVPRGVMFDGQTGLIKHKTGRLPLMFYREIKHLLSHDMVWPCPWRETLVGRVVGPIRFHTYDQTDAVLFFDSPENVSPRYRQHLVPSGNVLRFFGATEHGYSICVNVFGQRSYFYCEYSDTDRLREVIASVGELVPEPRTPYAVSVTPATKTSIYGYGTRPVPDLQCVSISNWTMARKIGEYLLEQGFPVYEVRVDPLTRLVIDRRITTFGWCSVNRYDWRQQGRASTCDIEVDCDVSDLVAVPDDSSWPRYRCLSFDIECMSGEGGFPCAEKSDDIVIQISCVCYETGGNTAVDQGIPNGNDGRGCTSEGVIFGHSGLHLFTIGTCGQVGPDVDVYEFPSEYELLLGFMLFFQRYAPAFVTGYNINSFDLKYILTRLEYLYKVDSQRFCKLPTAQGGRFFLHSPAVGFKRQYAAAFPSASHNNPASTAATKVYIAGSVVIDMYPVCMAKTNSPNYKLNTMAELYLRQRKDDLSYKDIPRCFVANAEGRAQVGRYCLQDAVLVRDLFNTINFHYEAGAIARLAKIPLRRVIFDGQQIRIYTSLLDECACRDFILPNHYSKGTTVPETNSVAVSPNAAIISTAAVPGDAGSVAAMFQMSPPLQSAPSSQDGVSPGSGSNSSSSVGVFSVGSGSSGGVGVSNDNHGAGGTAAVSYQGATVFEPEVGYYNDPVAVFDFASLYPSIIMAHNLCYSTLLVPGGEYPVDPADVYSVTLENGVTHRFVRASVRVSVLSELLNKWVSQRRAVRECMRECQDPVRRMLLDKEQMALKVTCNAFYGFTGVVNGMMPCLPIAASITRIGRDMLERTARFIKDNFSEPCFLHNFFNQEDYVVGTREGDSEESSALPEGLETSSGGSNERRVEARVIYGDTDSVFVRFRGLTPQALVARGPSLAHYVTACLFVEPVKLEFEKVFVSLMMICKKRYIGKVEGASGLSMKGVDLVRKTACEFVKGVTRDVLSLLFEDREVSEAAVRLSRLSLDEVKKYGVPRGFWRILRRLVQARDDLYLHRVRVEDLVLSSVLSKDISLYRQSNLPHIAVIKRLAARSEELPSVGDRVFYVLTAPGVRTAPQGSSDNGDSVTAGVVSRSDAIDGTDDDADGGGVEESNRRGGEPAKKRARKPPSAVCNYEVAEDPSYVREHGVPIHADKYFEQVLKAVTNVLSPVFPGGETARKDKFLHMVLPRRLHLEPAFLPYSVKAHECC", "test": "HCMV polymerase assay (scintillation proximity assay)", "assay_type": "biochemical", "conditions": "percentage of inhibition at 25 μM concentration in CMV polymerase assay", "protocol": "The compounds of the present invention are tested in an polymerase assay to show activity described below, which is indicative of a compound's activity and thus of its use as an anti-viral agent.\nThe HCMV polymerase assay is performed using a scintillation proximity assay (SPA) as described in several references, such as N. D. Cook, et al., Pharmaceutical Manufacturing International, pages 49-53 (1992); K. Takeuchi, Laboratory Practice, September issue (1992); U.S. Pat. No. 4,568,649 (1986); which are incorporated by reference herein. Reactions are performed in 96-well plates. The assay is conducted in 100 μl volume with 5.4 mM HEPES (pH 7.5), 11.7 mM KCl, 4.5 mM MgCl2, 0.36 mg/ml BSA, and 90 nM ^3 H-dTTP. Assays are run with and without CHAPS, (3-[(3-Cholamidopropyl)-dimethylammonio]-1-propanesulfonate) at a final concentration of 2 mM. HCMV is diluted in enzyme dilution buffer containing 50% glycerol, 250 mM NaCl, 10 mM HEPES (pH 7.5), 100 μg/ml BSA, and 0.01% sodium azide. The HCMV polymerase, which is expressed in recombinant baculovirus-infected SF-9 cells and purified according to literature procedures, is added at 10% (or 10 μl) of the final reaction volume, i.e., 100 μl. Compounds are diluted in 50% DMSO and 10 μl are added to each well. Control wells contain an equivalent concentration of DMSO. Unless noted otherwise, reactions are initiated via the addition of 6 nM biotinylated poly(dA)-oligo(dT) template/primer to reaction mixtures containing the enzyme, substrate, and compounds of interest. Plates are incubated in a 25° C. or 37° C. H2 O bath and terminated via the addition of 40 μl/reaction of 0.5 M EDTA (pH 8) per well. Reactions are terminated within the time-frame during which substrate incorporation is linear and varied depending upon the enzyme and conditions used, i.e., 30 min. for HCMV polymerase. Ten μl of streptavidin-SPA beads (20 mg/ml in PBS/10% glycerol) are added following termination of the reaction. Plates are incubated 10 min. at 37° C., then equilibrated to room temperature, and counted on a Packard Topcount.\nIn TABLE 1, \"MS\" refers to mass spectral data, \"% inhib\" refers to percentage of inhibition at 25 μM concentration in CMV polymerase assay.", "units": {"inhibition at 25 µM": "%", "% Inhib": "%"}, "values": [{"smiles": "CCOc1ccc2ccccc2c1C(=O)Nc1nnc(NCc2cccnc2)s1", "note": "[compound 66, 2-ethoxy-N-{5-[(3-pyridinylmethyl)amino]-1,3,4-thiadiazol-2-yl}-1-naphthamide]", "inhibition at 25 µM": 71.9}, {"smiles": "O=C(/C=C/c1ccccc1Cl)Nc1nnc(NCc2ccc(F)cc2)s1", "note": "[compound 67, (E)-3-(2-chlorophenyl)-N-{5-[(4-fluorobenzyl)amino]-1,3,4-thiadiazol-2-yl}-2-propenamide]", "inhibition at 25 µM": 71.7}, {"smiles": "NS(=O)(=O)c1ccc(CCNc2nnc(NC(=O)c3ccc(I)cc3)s2)cc1", "note": "[compound 68, N-(5-{[4-(aminosulfonyl)phenthyl]amino}-1,3,4-thiadiazol-2-yl)-4-iodobenzamide]", "inhibition at 25 µM": 71.1}, {"smiles": "CCOc1ccc2ccccc2c1C(=O)Nc1nnc(NCCNc2ccccc2)s1", "note": "[compound 69, N-{5-[(2-anilinoethyl)amino]-1,3,4-thiadiazol-2-yl}-2-ethoxy-1-naphthamide]", "inhibition at 25 µM": 70.6}, {"smiles": "CCOc1ccc2ccccc2c1C(=O)Nc1nnc(NCc2ccccn2)s1", "note": "[compound 70, 2-ethoxy-N-{5-[(2-pyridinylmethyl)amino]-1,3,4-thiadiazol-2-yl}-1-naphthamide]", "inhibition at 25 µM": 70.4}, {"smiles": "CCOc1ccc2ccccc2c1C(=O)Nc1nnc(NCc2ccc(F)cc2)s1", "note": "[compound 71, 2-ethoxy-N-{5-[(4-fluorobenzyl)amino]-1,3,4-thiadiazol-2-yl}-1-naphthamide]", "inhibition at 25 µM": 69.8}, {"smiles": "CCCCCCCC/C=C/CCCCCCCC(=O)Nc1nnc(NCc2cccnc2)s1", "note": "[compound 72, (E)-N-{5-[(3-pyridinylmethyl)amino]-1,3,4-thiadiazol-2-yl}-9-octadecenamide]", "inhibition at 25 µM": 69.3}, {"smiles": "O=C(Nc1nnc(NCc2ccc(Cl)c(Cl)c2)s1)c1c(Cl)cccc1Cl", "note": "[compound 73, 2,6-dichloro-N-{5-[(3,4-dichlorobenzyl)amino]-1,3,4-thiadiazol-2-yl}benzamide]", "inhibition at 25 µM": 69.1}, {"smiles": "N#Cc1ccc(C(=O)Nc2nnc(NCc3ccc(F)cc3)s2)cc1", "note": "[compound 74, 4-cyano-N-{5-[(4-fluorobenzyl)amino]-1,3,4-thiadiazol-2-yl}benzamide]", "inhibition at 25 µM": 69}, {"smiles": "O=C(/C=C/c1ccccc1Cl)Nc1nnc(NCCCNC2CCCCC2)s1", "note": "[compound 75, (E)-3-(2-chlorophenyl)-N-(5-{[3-(cyclohexylamino)propyl]amino}-1,3,4-thiadiazol-2-yl)-2-propenamide]", "inhibition at 25 µM": 68.8}, {"smiles": "O=C(Nc1nnc(NC2CCCc3ccccc32)s1)c1c(Cl)cccc1Cl", "note": "(stereo not shown) [compound 76, 2,6-dichloro-N-[5-(1,2,3,4-tetrahydro-1-naphthalenylamino)-1,3,4-thiadiazol-2-yl]benzamide]", "inhibition at 25 µM": 68.5}, {"smiles": "O=C(/C=C/c1ccccc1)Nc1nnc(NCCc2cccs2)s1", "note": "[compound 77, (E)-3-phenyl-N-(5-{[2-(2-thienyl)ethyl]amino}-1,3,4-thiadiazol-2-yl)-2-propenamide]", "inhibition at 25 µM": 68.3}, {"smiles": "CCOc1ccc2ccccc2c1C(=O)Nc1nnc(NCc2cccs2)s1", "note": "[compound 78, 2-ethoxy-N-{5-[(2-thienylmethyl)amino]-1,3,4-thiadiazol-2-yl}-1-naphthamide]", "inhibition at 25 µM": 68.2}, {"smiles": "CCCCCCCC/C=C/CCCCCCCC(=O)Nc1nnc(NCCC(=O)OC(C)(C)C)s1", "note": "[compound 79, tert-butyl-3-({5-[(E)-9-octadecenoylamino]-1,3,4-thiadiazol-2-yl}amino)propanoate]", "inhibition at 25 µM": 68}, {"smiles": "CCCCCCCCCCCNc1nnc(NC(=O)c2cccc([N+](=O)[O-])c2)s1", "note": "[compound 80, 3-nitro-N-[5-(undecylamino)-1,3,4-thiadiazol-2-yl]benzamide]", "inhibition at 25 µM": 67.9}, {"smiles": "O=C(/C=C/c1ccccc1)Nc1nnc(NCCCCc2ccccc2)s1", "note": "[compound 81, (E)-3-phenyl-N-{5-[(4-phenylbutyl)amino]-1,3,4-thiadiazol-2-yl}-2-propenamide]", "inhibition at 25 µM": 67.9}, {"smiles": "N#Cc1ccc(C(=O)Nc2nnc(NCCc3c[nH]c4ccccc34)s2)cc1", "note": "[compound 82, 4-cyano-N-(5-{[2-(1H-indol-3-yl)ethyl]amino}-1,3,4-thiadiazol-2-yl)benzamide]", "inhibition at 25 µM": 67.7}, {"smiles": "N#Cc1ccc(C(=O)Nc2nnc(NCC(c3ccccc3)c3ccccc3)s2)cc1", "note": "[compound 83, 4-cyano-N-{5-[(2,2-diphenylethyl)amino]-1,3,4-thiadiazol-2-yl}benzamide]", "inhibition at 25 µM": 67.7}, {"smiles": "O=C(Nc1nnc(NCc2ccncc2)s1)c1c(Cl)cccc1Cl", "note": "[compound 84, 2,6-dichloro-N-{5-[(4-pyridinylmethyl)amino]-1,3,4-thiadiazol-2-yl}benzamide]", "inhibition at 25 µM": 67.6}, {"smiles": "O=C(Nc1nnc(NC2CCN(Cc3ccccc3)CC2)s1)c1ccc2c(c1)C(=O)OC2=O", "note": "[compound 85, N-{5-[(1-benzyl-4-piperidinyl)amino]-1,3,4-thiadiazol-2-yl}-1,3-dioxo-1,3-dihydro-2-benzofuran-5-carboxamide]", "inhibition at 25 µM": 67.3}, {"smiles": "CCOC(=O)N1CCC(Nc2nnc(NC(=O)c3c(OCC)ccc4ccccc34)s2)CC1", "note": "[compound 86, ethyl 4-[(5-{[(2-ethoxy-1-naphthyl)carbonyl]amino}-1,3,4-thiadiazol-2-yl)amino]tetrahydro-1(2H)-pyridinecarboxylate]", "inhibition at 25 µM": 67}, {"smiles": "CC(C)c1cc(C(C)C)c(C(=O)Nc2nnc(NCCCn3ccnc3)s2)c(C(C)C)c1", "note": "[compound 87, N-(5-{[3-(1H-imidazol-1-yl)propyl]amino}-1,3,4-thiadiazol-2-yl)-2,4,6-triisopropylbenzamide]", "inhibition at 25 µM": 67}, {"smiles": "NS(=O)(=O)c1ccc(CNc2nnc(NC(=O)/C=C/c3ccccc3Cl)s2)cc1", "note": "[compound 88, (E)-N-(5-{[4-(aminosulfonyl)benzyl]amino}-1,3,4-thiadiazol-2-yl)-3-(2-chlorophenyl)-2-propenamide]", "inhibition at 25 µM": 66.5}, {"smiles": "CCOc1ccc2ccccc2c1C(=O)Nc1nnc(NCCc2c[nH]cn2)s1", "note": "[compound 89, 2-ethoxy-N-(5-{[2-(1H-imidazol-4-yl)ethyl]amino}-1,3,4-thiadiazol-2-yl)-1-naphthamide]", "inhibition at 25 µM": 66.3}, {"smiles": "O=C(Nc1nnc(NCCc2c[nH]c3ccccc23)s1)c1ccc(S(=O)(=O)F)cc1", "note": "[compound 90, 4-{[(5-{[2-(1H-indol-3-yl)ethyl]amino}-1,3,4-thiadiazol-2-yl)amino]carbonyl}benzenesulfonyl fluoride]", "% Inhib": 66.1}, {"smiles": "CCCCCCCC/C=C/CCCCCCCC(=O)Nc1nnc(NC2CCN(C(=O)OCC)CC2)s1", "note": "[compound 91, ethyl 4-({5-[(E)-9-octadecenoylamino]-1,3,4-thiadiazol-2-yl}amino)tetrahydro-1(2H)-pyridinecarboxylate]", "inhibition at 25 µM": 66.1}, {"smiles": "O=C(Nc1nnc(NCCc2cccs2)s1)c1c(Cl)cccc1Cl", "note": "[compound 92, 2,6-dichloro-N-(5-{[2-(2-thienyl)ethyl]amino}-1,3,4-thiadiazol-2-yl)benzamide]", "inhibition at 25 µM": 66.1}, {"smiles": "CCOc1ccc2ccccc2c1C(=O)Nc1nnc(NC2CCCc3ccccc32)s1", "note": "(stereo not shown) [compound 93, 2-ethoxy-N-[5-(1,2,3,4-tetrahydro-1-naphthaienylamino)-1,3,4-thiadiazol-2-yl]-1-naphthamide]", "inhibition at 25 µM": 66}, {"smiles": "O=C(/C=C/c1ccccc1)Nc1nnc(NCc2ccncc2)s1", "note": "[compound 94, (E)-3-phenyl-N-{5-[(4-pyridinylmethyl)amino]-1,3,4-thiadiazol-2-yl}-2-propenamide]", "inhibition at 25 µM": 65.9}, {"smiles": "CCOc1ccc2ccccc2c1C(=O)Nc1nnc(NC2CCc3ccccc32)s1", "note": "(stereo not shown) [compound 95, N-[5-(2,3-dihydro-1H-inden-1-ylamino)-1,3,4-thiadiazol-2-yl]-2-ethoxy-1-naphthamide]", "inhibition at 25 µM": 65.9}, {"smiles": "O=C(Nc1nnc(NCc2ccc3c(c2)OCO3)s1)c1c(Cl)cccc1Cl", "note": "[compound 96]", "inhibition at 25 µM": 65.9}, {"smiles": "CCOc1ccc2ccccc2c1C(=O)Nc1nnc(NCCc2cccs2)s1", "note": "[compound 97, 2-ethoxy-N-(5-{[2-(2-thienyl)ethyl]amino}-1,3,4-thiadiazol-2-yl)-1-naphthamide]", "inhibition at 25 µM": 65.8}, {"smiles": "O=C(/C=C/c1ccccc1Cl)Nc1nnc(NCCc2c[nH]cn2)s1", "note": "[compound 98, (E)-3-(2-chlorophenyl)-N-(5-{[2-(1H-imidazol-4-yl)ethyl]amino}-1,3,4-thiadiazol-2-yl)-2-propenamide]", "inhibition at 25 µM": 65.7}, {"smiles": "O=C(Nc1nnc(NCCCn2ccnc2)s1)c1c(Cl)cccc1Cl", "note": "[compound 99, 2,6-dichloro-N-(5-{[3-(1H-imidazol-1-yl)propyl]amino}-1,3,4-thiadiazol-2-yl)benzamide]", "inhibition at 25 µM": 65.6}]}]}
